What was measured:
A549 cells = assay: Ras cellular assay, growth of cells with K-Ras G12S mutation (CellTiter-Glo); format: cell-based; conditions: Homo sapiens, cell growth, Example 9, G12S mutation, read-out: IC50 against A549 cells
Experimental: For example, this assay can be also used to assess a selective growth inhibition of a mutant Ras protein relative to a wildtype, or relative to a different mutant Ras protein.
A549 (ATCC CCL-185) and LS123 (ATCC CCL-255) cell lines comprise a G12S mutation and can be used to assess Ras cellular signaling in vitro, e.g., in response to the compounds herein. A549 culture medium is prepared with RPMI-1640 and 10% heat-inactivated FBS. LS123 culture medium is prepared with RPMI-1640 and 10% heat-inactivated FBS. A CellTiter-Glo (CTG) luminescent based assay (Promega) is used to assess growth of the cells, as a measurement of the ability of the compounds herein to inhibit Ras signaling in the cells. The cells (e.g., 800 per well) are seeded in their respective culture medium in standard tissue culture-treated 384-well format plates (Falcon #08-772-116) or ultra-low attachment surface 384-well format plates (S-Bio #MS-9384WZ). The day after plating, cells are treated with a dilution series (e.g., a 10 point 3-fold dilution series) of the compounds herein (e.g., approximately 40 μL final volume per well). Cell viability can be monitored (e.g., approximately 6 days later) according to the manufacturer's recommended instructions, where the CellTiter-Glo reagent is added (e.g., approximately 10 μL), vigorously mixed, covered, and placed on a plate shaker (e.g., approximately for 20 min) to ensure sufficient cell lysis prior to assessment of luminescent signal. The IC50 values are determined using the four parameter fit. The resulting IC50 value is a measurement of the ability of the compounds herein to reduce cell growth of Ras-driven cells (e.g., tumor cell lines) in vitro and/or in vivo.

K-Ras G12V = target: T1, K-Ras G12V (Homo sapiens, UniProt P01116, G12V); assay: HTRF resonance energy transfer assay, K-Ras G12V / SOS1 interaction; format: biochemical; conditions: HTRF assay of Example 5; read-out: IC50 against K-Ras G12V
T1 construct: made in house; host or cells: E. coli BL21 (DE3)
T1 sequence (P01116 1-188 isoform P01116-2 G12V): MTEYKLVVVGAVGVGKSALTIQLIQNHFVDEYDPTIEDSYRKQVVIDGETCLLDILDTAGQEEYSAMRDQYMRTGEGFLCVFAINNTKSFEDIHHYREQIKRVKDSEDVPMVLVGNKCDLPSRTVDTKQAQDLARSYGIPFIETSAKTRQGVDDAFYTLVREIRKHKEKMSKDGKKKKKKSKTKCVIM
Procedure, shortened: (§1)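 Buffer about 5 mM HEPES pH 7.4 with ~150 mM NaCl, ~1 mM DTT, 0.05% BSA, 0.0025% (v/v) Igepal. Protein constructs used at molarity matching the IC50 range studied (e.g. ~500 nM). FRET between tagged K-Ras and hSOS1 measured after short incubation.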

SW620 cells = assay: Ras cellular assay, growth of cells with K-Ras G12V mutation (CellTiter-Glo); format: cell-based; conditions: Homo sapiens, SW-620; cell growth, Example 9, G12V mutation; read-out: IC50 against SW620 cells
Procedure, shortened: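 IC50 values came from a four-parameter fit of CellTiter-Glo viability, read roughly 6 days after dosing with e.g. a 10-point threefold dilution series. G12V-mutant SW620 cells (e.g. 800 per well) had been plated the previous day in RPMI-1640/10% heat-inactivated FBS, on tissue culture-treated or ultra-low attachment plates.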

K-Ras G12S = target: T2, K-Ras G12S (Homo sapiens, UniProt P01116, G12S); assay: HTRF resonance energy transfer assay, K-Ras G12S / SOS1 interaction; format: biochemical; conditions: HTRF assay of Example 5; read-out: IC50 against K-Ras G12S
T2 construct: made in house; host or cells: E. coli BL21 (DE3)
T2 sequence (P01116 1-188 isoform P01116-2 G12S): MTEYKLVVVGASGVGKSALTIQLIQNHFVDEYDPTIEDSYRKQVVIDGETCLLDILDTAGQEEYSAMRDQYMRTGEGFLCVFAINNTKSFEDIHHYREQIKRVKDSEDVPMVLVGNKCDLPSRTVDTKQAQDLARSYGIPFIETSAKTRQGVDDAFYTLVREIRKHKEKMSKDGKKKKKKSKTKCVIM
Procedure, shortened: as §1

K-Ras WT = target: T3, K-Ras WT (Homo sapiens, UniProt P01116); assay: HTRF resonance energy transfer assay, K-Ras WT / SOS1 interaction; format: biochemical; conditions: HTRF assay of Example 5; read-out: IC50 against K-Ras WT
T3 construct: made in house; host or cells: E. coli BL21 (DE3)
T3 sequence (P01116 1-188 isoform P01116-2): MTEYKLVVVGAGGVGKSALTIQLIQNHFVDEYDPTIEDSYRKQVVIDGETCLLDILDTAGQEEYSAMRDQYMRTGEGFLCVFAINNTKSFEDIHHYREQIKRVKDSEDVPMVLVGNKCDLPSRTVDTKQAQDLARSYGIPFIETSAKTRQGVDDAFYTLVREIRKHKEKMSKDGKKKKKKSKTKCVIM
Procedure, shortened: as §1

K-Ras G12D = target: T4, K-Ras G12D (Homo sapiens, UniProt P01116, G12D); assay: HTRF resonance energy transfer assay, K-Ras G12D / SOS1 interaction; format: biochemical; conditions: HTRF assay of Example 5; read-out: IC50 against K-Ras G12D
T4 construct: made in house; host or cells: E. coli BL21 (DE3)
T4 sequence (P01116 1-188 isoform P01116-2 G12D): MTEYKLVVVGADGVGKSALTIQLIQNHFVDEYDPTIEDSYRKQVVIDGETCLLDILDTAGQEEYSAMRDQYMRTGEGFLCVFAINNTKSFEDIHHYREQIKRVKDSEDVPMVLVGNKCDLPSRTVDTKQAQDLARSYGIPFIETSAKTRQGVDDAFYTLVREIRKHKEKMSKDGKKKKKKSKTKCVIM
Procedure, shortened: as §1

Row | SMILES | IC50 (A549 cells) [nM] | IC50 (K-Ras G12V) [nM] | IC50 (SW620 cells) [nM] | IC50 (K-Ras G12S) [nM] | IC50 (K-Ras WT) [nM] | IC50 (K-Ras G12D) [nM]
1 | N#Cc1c(N)sc2c(F)ccc(-c3c(Cl)c4c5c(nc(OC[C@@]67CCCN6C[C@H](F)C7)nc5c3F)N(C3CCC(=C(F)F)C3)CCO4)c12 (stereo partly drawn) [Compound 605, 2-amino-4-(8-chloro-4-(3-(difluoromethylene)cyclopentyl)-10-fluoro-2-(((2R,7aS)-2-fluorotetrahydro-1H-pyrrolizin-7a(5H)-yl)methoxy)-5,6-dihydro-4H-[1,4]oxazepino[5,6,7-de]quinazolin-9-yl)-7-fluorobenzo[b]thiophene-3-carbonitrile] | < 5000 | < 100 | < 5000 | < 100 | < 100 | –
2 | N#Cc1c(N)sc2c(F)ccc(-c3c(Cl)c4c5c(nc(OC[C@@]67CCCN6C[C@H](F)C7)nc5c3F)N(CC(F)F)CCO4)c12 [Compound 827, 2-amino-4-(8-chloro-4-(2,2-difluoroethyl)-10-fluoro-2-(((2R,7aS)-2-fluorotetrahydro-1H-pyrrolizin-7a(5H)-yl)methoxy)-5,6-dihydro-4H-[1,4]oxazepino[5,6,7-de]quinazolin-9-yl)-7-fluorobenzo[b]thiophene-3-carbonitrile] | < 5000 | – | – | – | – | –
3 | N#Cc1c(N)sc2c(F)ccc(-c3c(Cl)c4c5c(nc(OC[C@@]67CCCN6C[C@H](F)C7)nc5c3F)N(C3CCOC3)[C@@H](C(F)F)CO4)c12 (stereo partly drawn) [Compound 855, 2-amino-4-((5R)-8-chloro-5-(difluoromethyl)-10-fluoro-2-(((2R,7aS)-2-fluorotetrahydro-1H-pyrrolizin-7a(5H)-yl)methoxy)-4-(tetrahydrofuran-3-yl)-5,6-dihydro-4H-[1,4]oxazepino[5,6,7-de]quinazolin-9-yl)-7-fluorobenzo[b]thiophene-3-carbonitrile] | < 5000 | < 100 | – | < 100 | – | –
4 | CCC1CC(N2CCOc3c(Cl)c(-c4ccc(F)c5sc(N)c(C#N)c45)c(F)c4nc(OC[C@@]56CCCN5C[C@H](F)C6)nc2c34)CCO1 (stereo partly drawn) [Compound 903, 2-amino-4-(8-chloro-4-(2-ethyltetrahydro-2H-pyran-4-yl)-10-fluoro-2-(((2R,7aS)-2-fluorotetrahydro-1H-pyrrolizin-7a(5H)-yl)methoxy)-5,6-dihydro-4H-[1,4]oxazepino[5,6,7-de]quinazolin-9-yl)-7-fluorobenzo[b]thiophene-3-carbonitrile] | < 5000 | < 100 | < 5000 | < 100 | < 100 | –
5 | C[C@H](Oc1nc2c3c(c(Cl)c(-c4ccc(F)c5sc(N)c(C#N)c45)c(F)c3n1)OCCN2C1CCOCC1)[C@@H]1CCCN1C [Compound 904, 2-amino-4-(8-chloro-10-fluoro-2-((S)-1-((S)-1-methylpyrrolidin-2-yl)ethoxy)-4-(tetrahydro-2H-pyran-4-yl)-5,6-dihydro-4H-[1,4]oxazepino[5,6,7-de]quinazolin-9-yl)-7-fluorobenzo[b]thiophene-3-carbonitrile] | < 5000 | < 100 | < 5000 | < 100 | < 100 | –
6 | C[C@H](Oc1nc2c3c(c(Cl)c(-c4ccc(F)c5sc(N)c(C#N)c45)c(F)c3n1)OCCN2[C@@H]1CCN(C(=O)C(F)F)C1)[C@@H]1CCCN1C [Compound 946, 2-amino-4-(8-chloro-4-((R)-1-(2,2-difluoroacetyl)pyrrolidin-3-yl)-10-fluoro-2-((S)-1-((S)-1-methylpyrrolidin-2-yl)ethoxy)-5,6-dihydro-4H-[1,4]oxazepino[5,6,7-de]quinazolin-9-yl)-7-fluorobenzo[b]thiophene-3-carbonitrile] | < 5000 | < 100 | – | < 100 | < 100 | < 100
7 | N#Cc1c(N)sc2c(F)ccc(-c3c(Cl)c4c5c(nc(OC[C@@]67CCCN6C[C@H](F)C7)nc5c3F)N(C3C5CNC3C5)CCO4)c12 (stereo partly drawn) [Compound 991, 4-(4-(2-azabicyclo[2.1.1]hexan-5-yl)-8-chloro-10-fluoro-2-(((2R,7aS)-2-fluorotetrahydro-1H-pyrrolizin-7a(5H)-yl)methoxy)-5,6-dihydro-4H-[1,4]oxazepino[5,6,7-de]quinazolin-9-yl)-2-amino-7-fluorobenzo[b]thiophene-3-carbonitrile] | < 5000 | < 100 | – | < 100 | < 100 | < 100
8 | N#Cc1c(N)sc2c(F)ccc(-c3c(Cl)c4c5c(nc(OC[C@@]67CCCN6C[C@H](F)C7)nc5c3F)N(C3CC5(C3)CC5(F)F)CCO4)c12 (stereo partly drawn) [Compound 1004, 2-amino-4-(8-chloro-4-(1,1-difluorospiro[2.3]hexan-5-yl)-10-fluoro-2-(((2R,7aS)-2-fluorotetrahydro-1H-pyrrolizin-7a(5H)-yl)methoxy)-5,6-dihydro-4H-[1,4]oxazepino[5,6,7-de]quinazolin-9-yl)-7-fluorobenzo[b]thiophene-3-carbonitrile] | < 5000 | < 100 | < 5000 | – | < 100 | –
9 | N#Cc1c(N)sc2c(F)ccc(-c3c(Cl)c4c5c(nc(OC[C@@]67CCCN6C[C@H](F)C7)nc5c3F)NCCO4)c12 [Compound 1087, 2-amino-4-(8-chloro-10-fluoro-2-(((2R,7aS)-2-fluorotetrahydro-1H-pyrrolizin-7a(5H)-yl)methoxy)-5,6-dihydro-4H-[1,4]oxazepino[5,6,7-de]quinazolin-9-yl)-7-fluorobenzo[b]thiophene-3-carbonitrile] | < 5000 | < 100 | – | < 100 | < 100 | < 100
10 | N#Cc1c(N)sc2c(F)ccc(-c3c(Cl)c4c5c(nc(OC[C@@]67CCCN6C[C@H](F)C7)nc5c3F)N(C3CC35CCN(C=O)C5)CCO4)c12 (stereo partly drawn) [Compound 1091, 2-amino-4-(8-chloro-10-fluoro-2-(((2R,7aS)-2-fluorotetrahydro-1H-pyrrolizin-7a(5H)-yl)methoxy)-4-(5-formyl-5-azaspiro[2.4]heptan-1-yl)-5,6-dihydro-4H-[1,4]oxazepino[5,6,7-de]quinazolin-9-yl)-7-fluorobenzo[b]thiophene-3-carbonitrile] | < 5000 | < 100 | – | < 100 | < 100 | < 100
11 | N#Cc1c(N)sc2c(F)ccc(-c3c(Cl)c4c5c(nc(OC[C@@]67CCCN6C[C@H](F)C7)nc5c3F)N(C3COC5(CNC5)C3)CCO4)c12 (stereo partly drawn) [Compound 1093, 2-amino-4-(8-chloro-10-fluoro-2-(((2R,7aS)-2-fluorotetrahydro-1H-pyrrolizin-7a(5H)-yl)methoxy)-4-(5-oxa-2-azaspiro[3.4]octan-7-yl)-5,6-dihydro-4H-[1,4]oxazepino[5,6,7-de]quinazolin-9-yl)-7-fluorobenzo[b]thiophene-3-carbonitrile] | < 5000 | < 100 | – | < 100 | < 100 | < 100
12 | N#Cc1c(N)sc2c(F)ccc(-c3c(Cl)c4c5c(nc(OC[C@@]67CCCN6C[C@H](F)C7)nc5c3F)N(C3CC5(CCNC5)C3)CCO4)c12 (stereo partly drawn) [Compound 1112, 2-amino-4-(8-chloro-10-fluoro-2-(((2R,7aS)-2-fluorotetrahydro-1H-pyrrolizin-7a(5H)-yl)methoxy)-4-(6-azaspiro[3.4]octan-2-yl)-5,6-dihydro-4H-[1,4]oxazepino[5,6,7-de]quinazolin-9-yl)-7-fluorobenzo[b]thiophene-3-carbonitrile] | < 5000 | < 100 | – | < 100 | < 100 | < 100

From patent publication US12209102B2, “Heterocyclic compounds and uses thereof” (Kumquat Biosciences Inc., priority 2022, dated 2025)
